According to BigSolDB 2.1:

Cc1ncc([N+](=O)[O-])n1CCO
solubility (mole fraction)
Conditions | in chloroform | in ethanol | in ethyl acetate | in isopropanol | in methanol | in n-butanol | in water
293.15 K | 0.00128 | 0.00433 | 0.00299 | 0.00396 | 0.00641 | 0.00533 | 0.000872
297.55 K | 0.0016 | 0.00596 | 0.00395 | 0.00462 | 0.0076 | 0.00576 | –
298.45 K | – | – | – | – | – | – | 0.00104
302.55 K | 0.00226 | 0.00641 | 0.00495 | 0.00559 | 0.00925 | 0.00692 | –
306.95 K | – | – | – | – | – | – | 0.00146
307.55 K | 0.00288 | 0.00763 | 0.00605 | 0.00615 | 0.0112 | 0.00914 | –
308.65 K | – | – | – | – | – | – | 0.00152
312.35 K | 0.0036 | 0.00978 | 0.00713 | 0.00794 | 0.0138 | 0.0111 | –
313.15 K | – | – | – | – | – | – | 0.00181
317.85 K | 0.00418 | 0.0121 | 0.00887 | 0.0102 | 0.017 | 0.0132 | –
318.05 K | – | – | – | – | – | – | 0.00216
322.35 K | – | 0.0145 | 0.0121 | 0.0125 | 0.0201 | 0.0163 | –
322.95 K | – | – | – | – | – | – | 0.00265
